Laboratory results taken from patent US6365634B1, “Naturally occurring compounds and their derivatives as cyclooxygenase 2 and/or 5-lipoxygenase inhibitors” (C-P Technology Limited Partnership, priority 1997, dated 2002).

Biological target: T1, ovine COX I (Ovis aries, UniProt P05979)
T1 construct: a ram seminal vesicle preparation enriched in COX I (Biomol) was used; tissue Biomol; host or cells: ram seminal vesicle
T1 sequence (P05979 25-600): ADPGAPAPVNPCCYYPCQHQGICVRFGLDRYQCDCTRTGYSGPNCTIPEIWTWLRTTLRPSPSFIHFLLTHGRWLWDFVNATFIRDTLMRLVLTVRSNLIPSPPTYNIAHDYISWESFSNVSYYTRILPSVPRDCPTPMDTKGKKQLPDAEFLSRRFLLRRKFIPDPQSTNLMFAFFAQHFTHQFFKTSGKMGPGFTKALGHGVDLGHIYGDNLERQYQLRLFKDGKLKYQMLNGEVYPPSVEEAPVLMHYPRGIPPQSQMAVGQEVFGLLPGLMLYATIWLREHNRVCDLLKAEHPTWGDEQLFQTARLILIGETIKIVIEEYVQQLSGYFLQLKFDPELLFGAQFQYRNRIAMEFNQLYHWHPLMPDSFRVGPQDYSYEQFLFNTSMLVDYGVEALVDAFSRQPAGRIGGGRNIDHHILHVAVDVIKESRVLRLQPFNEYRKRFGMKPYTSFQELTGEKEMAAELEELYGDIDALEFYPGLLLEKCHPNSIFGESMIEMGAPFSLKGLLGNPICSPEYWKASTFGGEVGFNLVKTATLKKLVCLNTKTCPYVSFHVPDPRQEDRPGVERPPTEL
Assay: COX I biochemical assay (ram seminal vesicle preparation)
Method: Both the COX I and COX II assays were performed using modified versions of previously reported methods (Corey, E. J., Shih, C., and Cashman, J. R., 1983 Proc. Natl. Acad. Sci. v80, p3; Sigal, E., Grunberger, D., Cashman, J. R., Craik, C. S., Caughey, G. H., and Nadel, J. A., 1988 Biochem. Biophys. Res Comm. v150(1), p376). To assess for the presence of compounds in the peat bog extracts that were capable of inhibiting COX II, purified human recombinant COX II (Oxford Chemical) was suspended in 50 uL of COX assay buffer (50 mM Tris, pH 8.0) containing 0.2 mM hydroquinone, 5.0 mM tryptophan, 1.0 uM hematin, and 1.0 mM glutathione. […]
The assessment of cyclooxygenase activity (both COX I and II) in the presence and absence of the peat bog extracts was based on the quantitation of tlhe radiolabeled arachidonic acid metabolites prostaglandin A2 (PGA2), PGE2, and PGF2-alpha. […] The bands were visualized by UV-vis or I2 staining and scraped into scintillation vials for quantitation. […] The total enzyme activity (At), the corrected enzyme activity in the presence of an inhibitor (Ai), and % inhibition were calculated by the following equations: […]
The inhibitory activity of dehydroabietic acid methyl ester was assessed by performing biochemical assays that utilized 1) human recombinant COX II, 2) ovine COX I, and 3) rabbit reticulocyte 15-LO. […]

Row | Compound | Percent Inhibition of COX I (final concentration of 250 uM) [%] | Percent Inhibition of COX I (pure 4-cumylphenol, assay as Example 2B, concentration not given) [%]
1 | COC(=O)[C@]1(C)CCC[C@]2(C)c3ccc(C(C)C)cc3CC[C@@H]12 [Dehydroabietic acid methyl ester, dehydroabietic acid methyl ester] | 0.2 | –
2 | CC(C)(c1ccccc1)c1ccc(O)cc1 [4-Cumylphenol, 4-cumylphenol] | – | 1.6
